Results taken from patent publication US20050002862A1, “Biological markers for evaluating therapeutic treatment of inflammatory and autoimmune disorders” (priority 2000, published 2005).

Columns and labels:
Format in all cases: in vivo, human
[1] = system: MMP-3; assay: MMP-3 concentration, sandwich ELISA, before/after oral prednisone; settings: after three days of oral prednisone; all disease groups; mean pre drug 37 (29); adjusted p-value < 0.001
Text: (§1) The inventive biomarkers were identified in a study of the effects of oral prednisone on biological markers of allergy and asthma. Eighty subjects were enrolled in the study, 23 with atopic asthma, 28 with allergy alone, 26 with neither allergy nor asthma (healthy controls), and 3 with asthma alone. Allergy was defined by a positive skin prick test. Mild asthma was defined as positive methacholine challenge within the last three months, as well as one or more of documented diagnosis of asthma, history of cough, recurrent wheeze, recurrent difficult breathing, and recurrent chest tightening. Approximately half of the subjects from each disease group were given oral prednisone for three days, while the other half was given a placebo. Blood samples were taken before treatment and after three days of treatment with oral prednisone or placebo. […] Finally, the chemiluminescent alkaline phosphatase substrate was added and incubated before reading. Standard curves and analyte amounts were determined using curve fitting techniques. Following data acquisition, variables were analyzed to assess differences in subject groups before drug administration, as well as changes following drug administration. A total of 713 variables, including cell populations, cell surface antigen expression, and soluble factors, were analyzed. […]

[2] = system: HLA class II expression on B cells; assay: HLA class II expression on B cells in blood, cytometry, before/after oral prednisone; settings: after three days of oral prednisone, all disease groups, adjusted p-value < 0.001
Text: (§2) The inventive biomarkers were identified in a study of the effects of oral prednisone on biological markers of allergy and asthma. Eighty subjects were enrolled in the study, 23 with atopic asthma, 28 with allergy alone, 26 with neither allergy nor asthma (healthy controls), and 3 with asthma alone. Allergy was defined by a positive skin prick test. Mild asthma was defined as positive methacholine challenge within the last three months, as well as one or more of documented diagnosis of asthma, history of cough, recurrent wheeze, recurrent difficult breathing, and recurrent chest tightening. Approximately half of the subjects from each disease group were given oral prednisone for three days, while the other half was given a placebo. Blood samples were taken before treatment and after three days of treatment with oral prednisone or placebo. Cellular markers in the blood samples were evaluated using the SurroScan™ microvolume laser scanning cytometry system for multiparameter cellular analysis. Monoclonal antigen-specific antibodies were purchased from commercial vendors and coupled to one of three different fluorophores, Cy5, Cy5.5, and Cy7-APC. Assays were performed to monitor cell counts of more than 200 different cell populations, including granulocytes, eosinophils, monocytes, CD4 and CD8 T cells, B cells, and NK cells. In addition, the relative levels of 49 different cell surface antigens (activation antigens, co-stimulatory molecules, adhesion molecules, antigen receptors, cytokine receptors) on specific cell populations were measured. […] Each fluorophore was measured in a separate detection channel, and images were converted to flow cytometry standard format and analyzed with FlowJo™ cytometry analysis software. […] Following data acquisition, variables were analyzed to assess differences in subject groups before drug administration, as well as changes following drug administration. A total of 713 variables, including cell populations, cell surface antigen expression, and soluble factors, were analyzed. […]

[3] = system: CD38 expression on CD4 T cells; assay: CD38 expression on CD4 T cells in blood, cytometry, before/after oral prednisone; settings: after three days of oral prednisone; all disease groups; mean pre drug 32.9 (9.8); adjusted p-value < 0.001
Text: as §2, with “Approximately half of the subjects from each disease group were given oral prednisone for three days, while the other half was given a placebo. Blood samples were taken before treatment and after three days of treatment with oral prednisone or placebo.” left out, “Monoclonal antigen-specific antibodies were purchased from commercial vendors and coupled to one of three different fluorophores, Cy5, Cy5.5, and Cy7-APC. Assays were performed to monitor cell counts of more than 200 different cell populations, including granulocytes, eosinophils, monocytes, CD4 and CD8 T cells, B cells, and NK cells.” left out, “administration.” for “administration. A total of 713 variables, including cell populations, cell surface antigen expression, and soluble factors, were analyzed.”

[4] = system: CD89 expression on granulocytes; assay: CD89 expression on granulocytes in blood, microvolume laser scanning cytometry, before/after oral prednisone; settings: after three days of oral prednisone, adjusted p-value < 0.001
Text: as §2, with “Approximately half of the subjects from each disease group were given oral prednisone for three days, while the other half was given a placebo. Blood samples were taken before treatment and after three days of treatment with oral prednisone or placebo.” left out, “Monoclonal antigen-specific antibodies were purchased from commercial vendors and coupled to one of three different fluorophores, Cy5, Cy5.5, and Cy7-APC. Assays were performed to monitor cell counts of more than 200 different cell populations, including granulocytes, eosinophils, monocytes, CD4 and CD8 T cells, B cells, and NK cells.” left out, “administration.” for “administration. A total of 713 variables, including cell populations, cell surface antigen expression, and soluble factors, were analyzed.”

[5] = system: CD62L expression on B cells; assay: CD62L expression on B cells in blood, cytometry, before/after oral prednisone; settings: after three days of oral prednisone; all disease groups; mean pre drug 2998 (505); adjusted p-value < 0.001
Text: as §2, with “Approximately half of the subjects from each disease group were given oral prednisone for three days, while the other half was given a placebo. Blood samples were taken before treatment and after three days of treatment with oral prednisone or placebo.” left out, “Monoclonal antigen-specific antibodies were purchased from commercial vendors and coupled to one of three different fluorophores, Cy5, Cy5.5, and Cy7-APC. Assays were performed to monitor cell counts of more than 200 different cell populations, including granulocytes, eosinophils, monocytes, CD4 and CD8 T cells, B cells, and NK cells.” left out, “administration.” for “administration. A total of 713 variables, including cell populations, cell surface antigen expression, and soluble factors, were analyzed.”

[6] = system: monocytes; assay: Monocyte count in blood, cytometry, before/after oral prednisone; settings: after three days of oral prednisone; all disease groups; mean pre drug 369 (121); adjusted p-value < 0.001
Text: as §2, with “Approximately half of the subjects from each disease group were given oral prednisone for three days, while the other half was given a placebo. Blood samples were taken before treatment and after three days of treatment with oral prednisone or placebo.” left out, “Monoclonal antigen-specific antibodies were purchased from commercial vendors and coupled to one of three different fluorophores, Cy5, Cy5.5, and Cy7-APC. Assays were performed to monitor cell counts of more than 200 different cell populations, including granulocytes, eosinophils, monocytes, CD4 and CD8 T cells, B cells, and NK cells.” left out, “administration.” for “administration. A total of 713 variables, including cell populations, cell surface antigen expression, and soluble factors, were analyzed.”

[7] = system: SAA; assay: SAA concentration, sandwich ELISA, before/after oral prednisone; settings: after three days of oral prednisone; all disease groups; mean pre drug 2.73 (3.3); adjusted p-value < 0.001
Text: as §1

[8] = system: HLA class II expression on monocytes; assay: HLA class II expression on monocytes in blood, cytometry, before/after oral prednisone; settings: after three days of oral prednisone, all disease groups, adjusted p-value < 0.001
Text: The inventive biomarkers were identified in a study of the effects of oral prednisone on biological markers of allergy and asthma. Eighty subjects were enrolled in the study, 23 with atopic asthma, 28 with allergy alone, 26 with neither allergy nor asthma (healthy controls), and 3 with asthma alone. Allergy was defined by a positive skin prick test. Mild asthma was defined as positive methacholine challenge within the last three months, as well as one or more of documented diagnosis of asthma, history of cough, recurrent wheeze, recurrent difficult breathing, and recurrent chest tightening. Approximately half of the subjects from each disease group were given oral prednisone for three days, while the other half was given a placebo. Blood samples were taken before treatment and after three days of treatment with oral prednisone or placebo. Cellular markers in the blood samples were evaluated using the SurroScan™ microvolume laser scanning cytometry system for multiparameter cellular analysis. Monoclonal antigen-specific antibodies were purchased from commercial vendors and coupled to one of three different fluorophores, Cy5, Cy5.5, and Cy7-APC. Assays were performed to monitor cell counts of more than 200 different cell populations, including granulocytes, eosinophils, monocytes, CD4 and CD8 T cells, B cells, and NK cells. In addition, the relative levels of 49 different cell surface antigens (activation antigens, co-stimulatory molecules, adhesion molecules, antigen receptors, cytokine receptors) on specific cell populations were measured. The prepared antibody-dye reagents were combined into cocktails and incubated with aliquots of whole or red blood cell-lysed blood in the dark at room temperature for 20 minutes. The samples were then diluted with an appropriate buffer and loaded into capillary arrays for analysis. Each fluorophore was measured in a separate detection channel, and images were converted to flow cytometry standard format and analyzed with FlowJo™ cytometry analysis software. Template gates were used to enumerate the cell populations of interest in all of the assays. Following data acquisition, variables were analyzed to assess differences in subject groups before drug administration, as well as changes following drug administration. A total of 713 variables, including cell populations, cell surface antigen expression, and soluble factors, were analyzed. […] Univariate tests were performed on individual variables, and the step-down Bonferroni p-value adjustment method of Holm was employed to control for multiple comparisons. The Bonferroni correction, which reduces the number of false positives, is described above. Univariate tests were performed on the data before and after drug administration for both the drug and placebo groups. In order to determine whether any non-normality of the data affected the tests, both non-parametric tests (sign rank or sign) and parametric paired t-tests were performed. Statistical tests for normality, skewness, and kurtosis were performed per variable to assess normality. For sufficiently normally distributed data, the paired t-test result was used; otherwise, the nonparametric result was used. All p-values were adjusted using the step-down Bonferroni method, maintaining the overall study false positive rate below 5%. […] When the analysis was performed on the separate disease classes individually, no significant differences were found before and after drug administration. Additionally, a linear-mixed model was used to evaluate fixed and random effects for the prednisone and placebo groups. This model notes the difference in response in the drug and placebo to indicate whether the observed trends can be attributed to the drug alone. The model, executed with PROC MIXED in SAS™, used the three fixed effects of drug, time, and (drug×time) to fit the data.

C[C@]12C=CC(=O)C=C1CC[C@@H]1[C@@H]2C(=O)C[C@@]2(C)[C@H]1CC[C@]2(O)C(=O)CO [prednisone]
MMP-3 concentration, Mean Post Drug (SD) [1]: 188 (140) ng/ml | HLA-DQ on B cells (expression intensity), Mean Post Drug (SD) ([2]; mean pre drug 3123 (1090)): 1680 (817) arbitrary units | HLA-DR on B cells (expression intensity), Mean Post Drug (SD) ([2]; mean pre drug 8108 (2711)): 4486 (2025) arbitrary units | HLA-PAN on B cells (expression intensity), Mean Post Drug (SD) ([2]; mean pre drug 11684 (3190)): 6550 (3123) arbitrary units | CD38+ CD4 T cells, Mean Post Drug (SD) [3]: 29.3 (9.1) % of all CD4 T cells | CD89+ granulocyte population, Mean Post Drug (SD) ([4]; all disease groups (atopic, atopic asthmatic, healthy), mean pre drug 85 (20)): 96 (9) % of total granulocytes | CD89 on granulocytes (expression intensity), Mean Post Drug (SD) ([4]; all disease groups, mean pre drug 2047 (1549)): 2527 (1691) arbitrary units | CD62L on B cells (expression intensity), Mean Post Drug (SD) [5]: 2479 (478) arbitrary units | Monocytes (count), Mean Post Drug (SD) [6]: 478 (160) cells/μl | SAA concentration, Mean Post Drug (SD) [7]: 6.71 (14.5) μg/ml | HLADQ+ monocyte population, Mean Post Drug (SD) ([8]; mean pre drug 8.7 (4.39)): 3.6 (2.49) % of total monocytes | HLADR+ monocyte population, Mean Post Drug (SD) ([8]; mean pre drug 84.4 (14.0)): 75.4 (16.9) % of total monocytes | HLAPAN+ monocyte population, Mean Post Drug (SD) ([8]; mean pre drug 91.8 (8.4)): 83.0 (15.1) % of total monocytes | HLA-DQ on monocytes (expression intensity), Mean Post Drug (SD) ([8]; mean pre drug 165 (103)): 69 (52) arbitrary units | HLA-DR on monocytes (expression intensity), Mean Post Drug (SD) ([8]; mean pre drug 2966 (1068)): 1970 (729) arbitrary units | HLA-PAN on monocytes (expression intensity), Mean Post Drug (SD) ([8]; mean pre drug 4961 (1738)): 3196 (1046) arbitrary units
